Source: ChEMBL document CHEMBL5665443, “Enzyme Inhibitor Single Concentration assay results for EUbOPEN Chemogenomics Library” (2024)
Where a SMILES comes first, the peptide text is derived from it. [ ]: non-standard residue; d: D form. Arg(Me) = CNC(=N)NCCC[C@H](N)C(=O)O; d3Pal = N[C@H](Cc1cccnc1)C(=O)O; azaGly = NNC(=O)O

Assays:
[1] = target: N-glycosylase/DNA lyase (Homo sapiens) (UniProt O15527); conditions: Hit No;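 also: OGG1 cleavage of a quenched duplex DNA oligonucleotide, coupled to APE1 for strand incision, read as fluorescence at 594 nm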
Chain of N-glycosylase/DNA lyase (Homo sapiens) (O15527 whole entry): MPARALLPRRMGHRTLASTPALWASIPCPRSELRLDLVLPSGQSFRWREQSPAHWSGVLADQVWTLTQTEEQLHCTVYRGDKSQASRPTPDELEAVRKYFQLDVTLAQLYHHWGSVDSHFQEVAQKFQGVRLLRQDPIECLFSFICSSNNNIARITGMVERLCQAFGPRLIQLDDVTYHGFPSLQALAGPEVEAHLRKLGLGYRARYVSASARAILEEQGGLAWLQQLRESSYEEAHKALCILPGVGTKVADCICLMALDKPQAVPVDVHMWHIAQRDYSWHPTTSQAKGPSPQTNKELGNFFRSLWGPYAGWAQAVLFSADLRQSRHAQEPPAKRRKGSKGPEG
Description: Inhibition of OGG1 by quantifying inhibition of OGG1-mediated cleavage and dissociation of quenched duplex DNA oligonucleotides, measured as fluorescence at 594 nm. To generate a functional strand incision and increase turn-over this assay is coupled to APE1.

[2] = target: T1, Endonuclease 8-like 2 (Homo sapiens) (UniProt Q969S2); conditions: Hit No;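 also: fluorescence at 594 nm reports NEIL2 cutting and release of a quenched double-stranded DNA oligo substrate, reduced signal read as inhibition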
T1 sequence (whole entry): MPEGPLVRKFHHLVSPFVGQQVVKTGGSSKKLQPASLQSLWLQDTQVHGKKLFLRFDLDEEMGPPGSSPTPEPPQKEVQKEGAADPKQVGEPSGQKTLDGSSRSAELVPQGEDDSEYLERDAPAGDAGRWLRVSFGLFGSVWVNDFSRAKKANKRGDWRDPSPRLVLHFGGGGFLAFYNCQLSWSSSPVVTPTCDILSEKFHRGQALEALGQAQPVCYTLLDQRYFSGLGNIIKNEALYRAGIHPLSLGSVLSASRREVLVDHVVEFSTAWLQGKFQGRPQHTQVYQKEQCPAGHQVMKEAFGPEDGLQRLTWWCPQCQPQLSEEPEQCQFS
Description: Inhibition of NEIL2 by quantifying inhibition of NEIL2-mediated cleavage and dissociation of quenched duplex DNA oligonucleotides, measured as fluorescence at 594 nm.

[3] = target: T2, Endonuclease III-like protein 1 (Homo sapiens) (UniProt P78549);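 also: enzyme assay tracking NTHL1 cutting and release of a quenched double-stranded DNA oligo substrate, read as fluorescence at 594 nm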
T2 sequence (whole entry): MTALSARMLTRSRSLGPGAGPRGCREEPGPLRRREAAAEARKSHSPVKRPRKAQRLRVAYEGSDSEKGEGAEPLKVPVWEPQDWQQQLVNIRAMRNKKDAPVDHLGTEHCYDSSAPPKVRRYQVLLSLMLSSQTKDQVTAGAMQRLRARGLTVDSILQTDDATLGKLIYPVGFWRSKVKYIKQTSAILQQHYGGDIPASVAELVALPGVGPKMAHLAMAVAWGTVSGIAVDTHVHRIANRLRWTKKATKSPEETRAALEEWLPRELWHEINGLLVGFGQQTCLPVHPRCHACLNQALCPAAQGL
Description: Inhibition of NTHL1 by quantifying inhibition of NTHL1-mediated cleavage and dissociation of quenched duplex DNA oligonucleotides, measured as fluorescence at 594 nm.

[4] = target: G/T mismatch-specific thymine DNA glycosylase (Homo sapiens) (UniProt Q13569); conditions: Hit No;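 also: human TDG cleavage of quenched duplex DNA oligonucleotides coupled to APE1, strand release read as fluorescence at 594 nm, inhibition of TDG activity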
Chain of G/T mismatch-specific thymine DNA glycosylase (Homo sapiens) (Q13569 whole entry): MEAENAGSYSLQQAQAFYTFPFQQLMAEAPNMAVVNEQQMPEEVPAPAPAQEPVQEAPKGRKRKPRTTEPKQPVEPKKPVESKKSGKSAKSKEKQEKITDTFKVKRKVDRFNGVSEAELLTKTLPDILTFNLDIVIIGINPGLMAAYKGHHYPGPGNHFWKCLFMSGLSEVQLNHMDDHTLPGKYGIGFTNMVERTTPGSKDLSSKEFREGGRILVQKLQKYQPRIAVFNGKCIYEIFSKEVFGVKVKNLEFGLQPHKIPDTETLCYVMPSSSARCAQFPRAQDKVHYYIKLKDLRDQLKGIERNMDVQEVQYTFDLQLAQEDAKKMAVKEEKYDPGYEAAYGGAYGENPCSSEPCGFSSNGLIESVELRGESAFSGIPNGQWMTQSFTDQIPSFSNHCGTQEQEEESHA
Description: Inhibition of TDG by quantifying inhibition of TDG-mediated cleavage and dissociation of quenched duplex DNA oligonucleotides, measured as fluorescence at 594 nm. To generate a functional strand incision and increase turn-over this assay is coupled to APE1.

[5] = target: Uracil-DNA glycosylase (Homo sapiens) (UniProt P13051); conditions: Hit No;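 also: UNG excision on a quenched double-stranded DNA oligo probe, with APE1 added for strand incision and turnover, read as fluorescence at 594 nm as strands separate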
Chain of Uracil-DNA glycosylase (Homo sapiens) (P13051 whole entry): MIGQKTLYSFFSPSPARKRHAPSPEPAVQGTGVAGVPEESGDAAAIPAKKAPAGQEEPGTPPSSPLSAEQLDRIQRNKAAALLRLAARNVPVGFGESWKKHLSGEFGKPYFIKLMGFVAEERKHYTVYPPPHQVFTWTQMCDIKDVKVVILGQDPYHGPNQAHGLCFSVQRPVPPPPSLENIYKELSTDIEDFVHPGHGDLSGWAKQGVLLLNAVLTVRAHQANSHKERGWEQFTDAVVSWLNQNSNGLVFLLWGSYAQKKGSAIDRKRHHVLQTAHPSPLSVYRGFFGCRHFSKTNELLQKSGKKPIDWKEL
Description: Inhibition of UNG by quantifying inhibition of UNG-mediated cleavage and dissociation of quenched duplex DNA oligonucleotides, measured as fluorescence at 594 nm. To generate a functional strand incision and increase turn-over this assay is coupled to APE1.

[6] = target: T3, Single-strand selective monofunctional uracil DNA glycosylase (Homo sapiens) (UniProt Q53HV7); conditions: Hit No;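 also: enzymatic SMUG1 assay coupled with APE1, reading fluorescence at 594 nm released when a quenched double-stranded DNA oligonucleotide substrate is cleaved and separated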
T3 sequence (whole entry): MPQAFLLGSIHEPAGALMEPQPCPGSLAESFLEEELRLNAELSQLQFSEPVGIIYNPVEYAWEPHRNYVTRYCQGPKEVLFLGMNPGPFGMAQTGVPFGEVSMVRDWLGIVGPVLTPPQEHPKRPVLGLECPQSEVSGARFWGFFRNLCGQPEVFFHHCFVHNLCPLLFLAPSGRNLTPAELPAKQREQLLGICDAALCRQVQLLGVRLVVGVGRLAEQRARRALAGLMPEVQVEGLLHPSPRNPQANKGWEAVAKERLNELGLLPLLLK
Description: Inhibition of SMUG1 by quantifying inhibition of SMUG1-mediated cleavage and dissociation of quenched duplex DNA oligonucleotides, measured as fluorescence at 594 nm. To generate a functional strand incision and increase turn-over this assay is coupled to APE1.

[7] = target: Endonuclease 8-like 1 (Homo sapiens) (UniProt Q96FI4); conditions: Hit No;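 also: fluorescence at 594 nm from quenched duplex DNA oligonucleotides released by NEIL1 cleavage and strand separation, reported as reduction of this enzyme activity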
Chain of Endonuclease 8-like 1 (Homo sapiens) (Q96FI4 whole entry, the tested form may be a part): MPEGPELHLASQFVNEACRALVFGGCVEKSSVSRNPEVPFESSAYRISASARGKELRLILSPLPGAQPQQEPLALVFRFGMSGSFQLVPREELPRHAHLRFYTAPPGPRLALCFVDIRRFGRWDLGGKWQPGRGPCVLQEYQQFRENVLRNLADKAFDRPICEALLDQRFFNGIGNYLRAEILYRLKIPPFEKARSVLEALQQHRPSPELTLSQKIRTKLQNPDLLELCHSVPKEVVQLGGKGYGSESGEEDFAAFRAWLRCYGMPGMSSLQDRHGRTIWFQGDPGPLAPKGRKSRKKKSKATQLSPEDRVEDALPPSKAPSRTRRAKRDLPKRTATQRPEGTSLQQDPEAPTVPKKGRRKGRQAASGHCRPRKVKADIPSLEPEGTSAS
Description: Inhibition of NEIL1 by quantifying inhibition of NEIL1-mediated cleavage and dissociation of quenched duplex DNA oligonucleotides, measured as fluorescence at 594 nm.

[8] = target: Methyl-CpG-binding domain protein 4 (Homo sapiens) (UniProt O95243); conditions: Hit No;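 also: MBD4 activity read as fluorescence at 594 nm from cleavage and release of a quenched duplex DNA oligonucleotide, with APE1 coupled to incise the strand and raise turnover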
Chain of Methyl-CpG-binding domain protein 4 (Homo sapiens) (O95243 whole entry, the tested form may be a part): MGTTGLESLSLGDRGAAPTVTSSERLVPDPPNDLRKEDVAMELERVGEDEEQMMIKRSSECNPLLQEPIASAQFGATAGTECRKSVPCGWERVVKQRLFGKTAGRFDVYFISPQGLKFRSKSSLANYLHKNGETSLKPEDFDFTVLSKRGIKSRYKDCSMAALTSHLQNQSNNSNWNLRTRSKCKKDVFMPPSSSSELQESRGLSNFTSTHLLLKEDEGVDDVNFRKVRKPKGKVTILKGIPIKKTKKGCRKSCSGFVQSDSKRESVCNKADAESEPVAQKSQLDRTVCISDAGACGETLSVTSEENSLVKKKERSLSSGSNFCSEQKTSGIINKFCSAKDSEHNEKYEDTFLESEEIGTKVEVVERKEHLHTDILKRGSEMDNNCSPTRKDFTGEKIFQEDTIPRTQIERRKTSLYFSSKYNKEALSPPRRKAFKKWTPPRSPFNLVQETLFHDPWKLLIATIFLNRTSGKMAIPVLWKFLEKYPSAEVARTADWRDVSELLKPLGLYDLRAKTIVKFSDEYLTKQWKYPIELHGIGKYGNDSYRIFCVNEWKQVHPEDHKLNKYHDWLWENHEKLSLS
Description: Inhibition of MBD4 by quantifying inhibition of MBD4-mediated cleavage and dissociation of quenched duplex DNA oligonucleotides, measured as fluorescence at 594 nm. To generate a functional strand incision and increase turn-over this assay is coupled to APE1.

[9] = target: T4, Adenine DNA glycosylase (Homo sapiens) (UniProt Q9UIF7); conditions: Hit No;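 also: human MUTYH activity read as 594 nm fluorescence from cleavage and release of a quenched DNA duplex, coupled with APE1 for strand incision, lower signal meaning inhibition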
T4 sequence (whole entry): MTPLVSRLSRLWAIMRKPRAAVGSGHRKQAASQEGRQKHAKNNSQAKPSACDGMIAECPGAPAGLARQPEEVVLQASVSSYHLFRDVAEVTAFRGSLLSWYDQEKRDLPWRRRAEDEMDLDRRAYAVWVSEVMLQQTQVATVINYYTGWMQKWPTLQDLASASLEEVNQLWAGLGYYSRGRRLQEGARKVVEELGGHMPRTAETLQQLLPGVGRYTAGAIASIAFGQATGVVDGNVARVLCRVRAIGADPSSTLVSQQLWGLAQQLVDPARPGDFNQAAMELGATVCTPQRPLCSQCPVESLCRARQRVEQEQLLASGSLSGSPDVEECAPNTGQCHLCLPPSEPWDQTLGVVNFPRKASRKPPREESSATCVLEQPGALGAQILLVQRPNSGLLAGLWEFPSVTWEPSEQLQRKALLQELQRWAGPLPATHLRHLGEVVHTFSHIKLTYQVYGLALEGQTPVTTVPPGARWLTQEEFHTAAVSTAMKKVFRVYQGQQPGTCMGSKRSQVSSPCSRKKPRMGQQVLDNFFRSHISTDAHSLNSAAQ
Description: Inhibition of MUTYH by quantifying inhibition of MUTYH-mediated cleavage and dissociation of quenched duplex DNA oligonucleotides, measured as fluorescence at 594 nm. To generate a functional strand incision and increase turn-over this assay is coupled to APE1.

[10] = Compound Concentration 1.0 uM, Hit No
[11] = Compound Concentration 10.0 uM, Hit No

| SMILES | inhibition ([1]; Compound Concentration 1.0 uM) [%] | inhibition ([2]; Compound Concentration 1.0 uM) [%] | inhibition [3, 10] [%] | inhibition ([4]; Compound Concentration 1.0 uM) [%] | inhibition ([5]; Compound Concentration 1.0 uM) [%] | inhibition ([6]; Compound Concentration 1.0 uM) [%] | inhibition ([7]; Compound Concentration 1.0 uM) [%] | inhibition ([8]; Compound Concentration 1.0 uM) [%] | inhibition ([9]; Compound Concentration 1.0 uM) [%] | inhibition ([1]; Compound Concentration 10.0 uM) [%] | inhibition ([2]; Compound Concentration 10.0 uM) [%] | inhibition [3, 11] [%] | inhibition ([4]; Compound Concentration 10.0 uM) [%] | inhibition ([5]; Compound Concentration 10.0 uM) [%] | inhibition ([6]; Compound Concentration 10.0 uM) [%] | inhibition ([7]; Compound Concentration 10.0 uM) [%] | inhibition ([8]; Compound Concentration 10.0 uM) [%] | inhibition ([9]; Compound Concentration 10.0 uM) [%] | inhibition ([3]; Compound Concentration 10.0 uM, Hit Yes) [%] |
| --- | --- | --- | --- | --- | --- | --- | --- | --- | --- | --- | --- | --- | --- | --- | --- | --- | --- | --- | --- |
| COc1cccc(-c2nccc3c2CN(c2ccccc2)C3=O)c1 | 5.54 | 7.16 | 4.63 | 45.5 | 3.9 | 17.8 | -3.77 | 63.1 | -4.69 | – | – | – | – | – | – | – | – | – | – |
| COc1ccc2c(c1)O[C@H](c1ccc(OC)c(OC)c1)C[C@@H]2NC(=O)C1(c2ccc3c(c2)OC(F)(F)O3)CC1 | – | – | – | – | – | – | – | – | – | 6.08 | -3.29 | 3.97 | 47.2 | 3.82 | 9.42 | -6.95 | 67.5 | 5.63 | – |
| CNC(=O)c1cc(C(=O)N[C@H]2[C@@H]3COC[C@@H]32)cc2c1O[C@@H](CF)[C@@H]2c1ccccc1 | – | – | – | – | – | – | – | – | – | 6.72 | 8.44 | -3.92 | 52.5 | 4.27 | 8.28 | 6.68 | 54.8 | -6.61 | – |
| CCOP(=O)(OCC)C(=Cc1cc(C(C)(C)C)c(O)c(C(C)(C)C)c1)P(=O)(OCC)OCC | – | – | – | – | – | – | – | – | – | -1.84 | 11.2 | 12.5 | 58.6 | -4.58 | 3.52 | -3.17 | 49.5 | 14.5 | – |
| CCOC(=O)Nc1ccc2c(c1)N(C(=O)CN(CC)CC)c1ccccc1CC2 | – | – | – | – | – | – | – | – | – | -1.34 | -9.67 | 4.63 | 97.9 | -1.75 | 15.8 | -8.02 | 65.5 | -4.04 | – |
| CN(CCOc1ccc(C[C@H](Nc2ccccc2C(=O)c2ccccc2)C(=O)O)cc1)c1ccccn1 | – | – | – | – | – | – | – | – | – | 24.7 | 4.36 | -4.57 | 30.8 | -0.00636 | 8.44 | 5.16 | 67 | -3.55 | – |
| CO[C@H]1/C=C/O[C@@]2(C)Oc3c(C)c(O)c4c(O)c(c(/C=N/N5CCN(C)CC5)c(O)c4c3C2=O)NC(=O)/C(C)=C\C=C\[C@H](C)[C@H](O)[C@@H](C)[C@@H](O)[C@@H](C)[C@H](OC(C)=O)[C@@H]1C | – | – | – | – | – | – | – | – | – | 23.7 | -0.744 | – | 64 | 20 | 26.1 | -4.08 | 74.6 | 34.5 | 27.6 |
| CN(C(=O)c1cnn2cccnc12)c1cc2c(cc1N1CCOCC1)C(=O)N(C[C@@H](F)C(C)(C)O)C2 | – | – | – | – | – | – | – | – | – | -1.31 | -1.57 | -9.94 | 39.8 | 0.621 | 9.25 | 6.13 | 23.6 | 2.33 | – |
| CC(C)c1ccc(CC(=O)N2CCC[C@@H](c3cccc(OC(C)(C)C(=O)O)c3)C2)cc1 | – | – | – | – | – | – | – | – | – | -4.05 | 4.61 | 8.57 | 47.9 | 3.87 | 12.4 | -5.29 | 54.2 | -0.105 | – |
| CNC(=N)NCCC[C@H](NC(=O)[C@H](CC(C)C)NC(=O)NNC(=O)[C@H](Cc1ccccc1)NC(=O)[C@H](CO)NC(=O)[C@H](CC(N)=O)NC(=O)[C@@H](Cc1cccnc1)NC(=O)[C@H](N)Cc1ccc(O)cc1)C(=O)NCC(N)=O (H-[dY][d3Pal]NSF[azaGly]L[Arg(Me)]G-NH2) | – | – | – | – | – | – | – | – | – | 9.57 | -2.53 | 0.685 | 62.4 | 7.1 | 25.5 | -0.139 | 60.6 | -0.706 | – |
| Cn1cncc1[C@](O)(COc1ccc(C#N)cc1-c1ccc(OC(F)(F)F)cc1)c1ccc(C#N)cc1 | – | – | – | – | – | – | – | – | – | 7.95 | 0.531 | 10.6 | 37.9 | -1.26 | -2.99 | – | 62 | -9.34 | – |
| COC(=O)c1sccc1S(=O)(=O)Nc1ccc(Nc2ccccc2)cc1OC | – | – | – | – | – | – | – | – | – | 3.38 | 1.55 | -7.86 | 40.6 | 0.459 | 18.2 | – | 58 | -9.5 | – |
| O=S(=O)(c1ccccc1)N(CC(F)(F)F)c1ccc(C(O)(C(F)(F)F)C(F)(F)F)cc1 | – | – | – | – | – | – | – | – | – | 22.5 | -6.61 | -5.89 | 50.9 | -2.07 | 0.186 | – | 64.2 | 11.1 | – |
| COc1nc2ccc([C@@](O)(c3ccc(Cl)cc3)c3cncn3C)cc2c(Cl)c1Cc1ccc(-n2cccn2)cc1 | – | – | – | – | – | – | – | – | – | 14.3 | -3.55 | -3.26 | 42.9 | 9.26 | 16.6 | – | 64.5 | 6.4 | – |
| O=C(O)Cc1cc(I)c(Oc2ccc(O)c(I)c2)c(I)c1 | – | – | – | – | – | – | – | – | – | 32.3 | -3.55 | 15.2 | 40.4 | 3.85 | 30.4 | – | 63.6 | -6.77 | – |
| C[C@@H]1CCN(C(=O)CC#N)C[C@@H]1N(C)c1ncnc2[nH]ccc12 | 4.23 | -1.11 | 10.6 | 61.6 | 6.67 | 24.1 | – | 20.6 | 9.35 | – | – | – | – | – | – | – | – | – | – |
